Some test systems named below: 786-0 renal; A498 renal; DU-145 prostate; M14 melanoma; MDA-MB-435; NCI-H226 lung; NCI-H23 lung; NCI/ADR-RES ovarian; RPMI-8226 leukemia; SN12C renal.
Holding throughout (assay): NCI anticancer screen, dose series, 48 h

Structures are written as SMILES.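 These data come from cells grown in 96-well plates and exposed to compound for 48 hours at five concentrations. GI50 = concentration required for 50% inhibition of growth. TGI denotes the concentration required for complete inhibition of growth.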

`O=C1CS/C(=N/S(=O)(=O)c2ccc(N3N=C4c5ccccc5CC4C3c3cccs3)cc2)N1C(=O)c1ccccc1` (centres undefined): the GI50 with 786-0 renal is 48.8 µM; with A498 renal it was 23.6 µM; with DU-145 prostate, 38.2 µM; in the test with M14 melanoma, 44.7 µM; in the test with MDA-MB-435, 37.4 µM; in the test on NCI-H226 lung, 58.5 µM. The GI50 was 25.1 µM in the test with NCI-H23 lung, greater than 100 µM in the test with NCI/ADR-RES ovarian, 34 µM in the test with RPMI-8226 leukemia and 49.6 µM with SN12C renal. The TGI was greater than 100 µM in the test on 786-0 renal; 94.6 µM in the test with A498 renal; greater than 100 µM in the test on DU-145 prostate; greater than 100 µM in the test with M14 melanoma; greater than 100 µM in the test with MDA-MB-435; greater than 100 µM with NCI-H226 lung. Besides, the TGI in the test on NCI-H23 lung was 61.1 µM; with NCI/ADR-RES ovarian, greater than 100 µM; in the test with RPMI-8226 leukemia, greater than 100 µM; in the test on SN12C renal, greater than 100 µM.
Consider `CCCCC#Cc1c(I)n(C2OC(CO[Si](C)(C)C(C)(C)C)C3OC(C)(C)OC32)c(=O)n(C(=O)c2ccccc2)c1=O` (centres undefined), for which the GI50 with 786-0 renal is 3.25 µM; in the test on A498 renal, 30.9 µM; with DU-145 prostate, 2.25 µM; in the test with M14 melanoma, 1.6 µM; in the test with MDA-MB-435, 1.77 µM; with NCI-H226 lung it was 17.6 µM. Further, the GI50 in the test on NCI-H23 lung was 9.44 µM; with NCI/ADR-RES ovarian, 18.5 µM; in the test with RPMI-8226 leukemia it was 3.64 µM; in the test with SN12C renal, 19.3 µM. For the same compound, the TGI with 786-0 renal worked out at 14.5 µM; in the test with A498 renal, 98.3 µM; in the test with DU-145 prostate it was 4.68 µM; with M14 melanoma it was 3.3 µM; with MDA-MB-435, 3.87 µM; in the test with NCI-H226 lung, 37.6 µM. Further, the TGI came to 27.3 µM in the test with NCI-H23 lung, 49.3 µM with NCI/ADR-RES ovarian, 17.4 µM in the test on RPMI-8226 leukemia and 45.4 µM in the test on SN12C renal.
For the compound `C=C(C)[C@@H]1CCc2c(O)c(O)c(=O)cc(C)c2C1`, the TGI in the test with 786-0 renal is greater than 100 µM; in the test with A498 renal, greater than 62.3 µM; in the test with DU-145 prostate it was greater than 100 µM; in the test with M14 melanoma it was greater than 100 µM; in the test with MDA-MB-435, greater than 100 µM; in the test with NCI-H226 lung it was greater than 63 µM. The TGI was 48.9 µM with NCI-H23 lung, 25.8 µM with NCI/ADR-RES ovarian, greater than 100 µM in the test with RPMI-8226 leukemia and greater than 100 µM in the test on SN12C renal.
Take `CCN(CC)CCCNCc1cc(-c2ccccc2)nc2cc(Cl)ccc12`: the GI50 in the test on 786-0 renal is 2.41 µM; with A498 renal it was 2.36 µM; with DU-145 prostate, 11.7 µM; in the test on M14 melanoma it was 1.92 µM; in the test with MDA-MB-435 it was 1.84 µM; in the test on NCI-H226 lung, 11.8 µM. Also, the GI50 in the test with NCI-H23 lung is 12.5 µM; in the test on NCI/ADR-RES ovarian, 5 µM; in the test with RPMI-8226 leukemia it was 2.46 µM; in the test on SN12C renal, 4.69 µM. The TGI with 786-0 renal was 8.77 µM; in the test with A498 renal, 6.14 µM; in the test with DU-145 prostate, 24.5 µM; with M14 melanoma it was 3.63 µM; in the test on MDA-MB-435, 3.81 µM; in the test with NCI-H226 lung, 27.3 µM. Besides, the TGI amounted to 27.3 µM with NCI-H23 lung, 19.7 µM with NCI/ADR-RES ovarian, 5.93 µM with RPMI-8226 leukemia and 18.2 µM in the test with SN12C renal.
For `CC(C)C[C@H](NC(=O)Cn1cccc(CNC(=O)c2ccccc2)c1=O)B(O)O`, the GI50 in the test on 786-0 renal is 1.06 µM; in the test on A498 renal, 0.136 µM; in the test with DU-145 prostate, 0.734 µM; in the test with M14 melanoma, 0.27 µM; with MDA-MB-435 it was 0.158 µM; with NCI-H226 lung, 0.202 µM. Moreover, the GI50 in the test with NCI-H23 lung is 1.05 µM; in the test with NCI/ADR-RES ovarian, greater than 69.1 µM; with RPMI-8226 leukemia, 0.352 µM; in the test with SN12C renal it was 0.811 µM. Moreover, the TGI in the test with 786-0 renal is greater than 61.5 µM; in the test on A498 renal it was 0.706 µM; in the test with DU-145 prostate it was 45.1 µM; with M14 melanoma it was 1.42 µM; in the test on MDA-MB-435, 0.355 µM; in the test with NCI-H226 lung, 0.457 µM. Besides, the TGI was greater than 100 µM with NCI-H23 lung, greater than 100 µM in the test with NCI/ADR-RES ovarian and 11.3 µM in the test on SN12C renal.
In the case of `COc1cc(Cl)c(CC(=O)c2c[nH]c3ccccc23)cc1OC`, the TGI in the test on 786-0 renal was greater than 100 µM; with A498 renal, greater than 59.4 µM; in the test on DU-145 prostate it was greater than 100 µM; in the test on M14 melanoma, greater than 100 µM; in the test on MDA-MB-435, greater than 100 µM; in the test on NCI-H226 lung it was 45.1 µM. The TGI in the test with NCI-H23 lung, in the test with NCI/ADR-RES ovarian, with RPMI-8226 leukemia and with SN12C renal was greater than 100 µM in each case.
On to `COc1cc(S(=O)(=O)Nc2nc(-c3ccc(N4C(=O)C(C)SC4c4ccccc4O)cc3)cs2)ccc1Cl` (centres undefined), for which the GI50 with 786-0 renal is 64.9 µM; in the test on A498 renal, 51.3 µM; in the test on DU-145 prostate it was 42.5 µM; in the test with M14 melanoma, 38.6 µM; in the test on MDA-MB-435 it was 43.6 µM; with NCI-H226 lung, 20.3 µM. The GI50 in the test with NCI-H23 lung is 42.2 µM; with NCI/ADR-RES ovarian it was 50.9 µM; with RPMI-8226 leukemia it was 17.4 µM; in the test on SN12C renal, 47.4 µM. For the same compound, the TGI in the test with 786-0 renal, in the test on A498 renal, in the test with DU-145 prostate, in the test on M14 melanoma, with MDA-MB-435 and with NCI-H226 lung was greater than 100 µM throughout. For the same compound, the TGI in the test on NCI-H23 lung, with NCI/ADR-RES ovarian, with RPMI-8226 leukemia and with SN12C renal was greater than 100 µM throughout.
Turning to `O=c1cc(-c2ccccc2)[nH]c2c1CCCC2`, the GI50 in the test with 786-0 renal is 14.7 µM; with A498 renal, 1.44 µM; in the test with DU-145 prostate, 2.47 µM; in the test on M14 melanoma, 1.5 µM; in the test on MDA-MB-435 it was 0.29 µM; in the test on NCI-H226 lung it was 3.08 µM. Besides, the GI50 is 3.39 µM with NCI-H23 lung, 1.69 µM with NCI/ADR-RES ovarian, 4.67 µM with RPMI-8226 leukemia and 13.4 µM with SN12C renal. The TGI was greater than 100 µM with 786-0 renal; 7.83 µM with A498 renal; 8.35 µM in the test with DU-145 prostate; 5.68 µM in the test with M14 melanoma; 0.992 µM in the test on MDA-MB-435; 65.6 µM in the test on NCI-H226 lung. Moreover, the TGI with NCI-H23 lung was greater than 100 µM; with NCI/ADR-RES ovarian, 5.73 µM; in the test on RPMI-8226 leukemia it was greater than 100 µM; with SN12C renal, greater than 100 µM.

Values taken from PubChem BioAssay (NCI).
